Source: patent publication US5854050A, “Enzyme with protease activity” (Novo Nordisk A/S, priority 1993, dated 1998)

How the values were obtained:
[1] = tested on: Ground defatted feed quality soy; assay: Two-step hydrolysis of feed soy (°Brix, osmolality, DH); assay type: biochemical
Experimental: Ground defatted feed quality soy was mixed with deionised water under the conditions described below. The hydrolysis was carried out in two steps in order to simulate the pH conditions in the stomach and the small intestine.
70 g ground defatted soy
Time 1st step 180 minutes
Enzymes 1st step I) Pepsin 1.92 g
II) I + Bio-Feed Pro 3.0 L
2nd step I) Pancreatin 6 g
The enzymes were added at start 0 minutes. During the hydrolysis ° Brix and osmolality were measured to follow the reaction course. According to Adler-Nissen (1986) the osmolality values can be used for calculation of the Degree of Hydrolysis (DH) by the following equation: [formula] Where Δ is the increase in osmolality mOSM, S % is protein concentration, ω is the calibration factor for the osmometer, htot is the total number of peptide bonds in the protein substrate (meqv/g protein), and fosm is the factor for converting % to g/kg H2 O. [formula]

Hen Lysozyme = assay: Cleaning of contact lenses: removal of denatured 14C-lysozyme in 3% H2O2, pH 3.5; assay type: biochemical; details: 3% H2O2, pH 3.5, four hours, 25° C.; FIG. 7
Text: The experimental protocol was as follows:
Materials: Hen Lysozyme, L-6878 from Sigma "Rythmic" contact lens' from Essilor (Type II lens, high-water, nonionic) Protease I produced as described above Protease II produced as described above Porcine pepsin, P-6887 from Sigma Subtilisin carlsberg, Clear-Lens Pro® (Novo Nordisk A/S).
Standard buffer: 0.05M Na2 HPO4, 0.9% NaCl pH 7.5
Scintillation liquid, Optiphase "HiSafe III"
Hen lysozyme from Sigma was labelled with ^14 C through reductive methylation and purified.
A solution was made containing 0.05M Na2 HPO4, 0.9% NaCl and 0.2 mg/ml lysozyme pH 7.5. An amount of ^14 C-labelled lysozyme was added so the CPM (Counts Per Minute) is approximately 200.000. 1.0 ml of the solution was transferred to a scintillation glass. The contact lens was added and the glass placed in a water-bath at 85° C. for 30 minutes.
The contact lens was then rinsed in 3×3 ml reagent buffer. It was quartered with a scalpel. Each quarter was transferred to a new scintillation glass containing 3 ml of the reagent buffer. […]
The reaction took place over four hours at 25° C. […] 12 ml scintillation liquid was added and CPM was measured in a Packard 2500 TR liquid scintillation counter. […]
The relative amount of lysozyme removed from the lens during the combined disinfection/cleaning was calculated from the mass balance of each quarter lens. […]

[2] = STEP II (pH 6.5, with Pancreatin), 180 min

Pepsin
mOSM ([1]; STEP I (pH 4.0, 40° C.), 0 min): 347 mOSM
mOSM INCREASE ([1]; STEP I (pH 4.0, 40° C.), 0 min): 0 mOSM
°BRIX ([1]; STEP I (pH 4.0, 40° C.), 0 min): 5.09 °BRIX
% DH (Degree of Hydrolysis) ([1]; STEP I (pH 4.0, 40° C.), 0 min, calculated from osmolality): 0%
% DH (Degree of Hydrolysis) ([1]; STEP I, 5 min): 2.86%
mOSM ([1]; STEP I, 5 min): 362 mOSM
mOSM INCREASE ([1]; STEP I, 5 min): 15 mOSM
°BRIX ([1]; STEP I, 5 min): 6.135 °BRIX
% DH (Degree of Hydrolysis) ([1]; STEP I, 10 min): 2.86%
mOSM ([1]; STEP I, 10 min): 362 mOSM
mOSM INCREASE ([1]; STEP I, 10 min): 15 mOSM
°BRIX ([1]; STEP I, 10 min): 6.505 °BRIX
% DH (Degree of Hydrolysis) ([1]; STEP I, 15 min): 2.57%
mOSM ([1]; STEP I, 15 min): 360.5 mOSM
mOSM INCREASE ([1]; STEP I, 15 min): 13.5 mOSM
°BRIX ([1]; STEP I, 15 min): 6.625 °BRIX
% DH (Degree of Hydrolysis) ([1]; STEP I, 30 min): 3.14%
mOSM ([1]; STEP I, 30 min): 363.5 mOSM
mOSM INCREASE ([1]; STEP I, 30 min): 16.5 mOSM
°BRIX ([1]; STEP I, 30 min): 6.9275 °BRIX
% DH (Degree of Hydrolysis) ([1]; STEP I, 45 min): 3.62%
mOSM ([1]; STEP I, 45 min): 366 mOSM
mOSM INCREASE ([1]; STEP I, 45 min): 19 mOSM
°BRIX ([1]; STEP I, 45 min): 7.345 °BRIX
% DH (Degree of Hydrolysis) ([1]; STEP I, 60 min): 4.00%
mOSM ([1]; STEP I, 60 min): 368 mOSM
mOSM INCREASE ([1]; STEP I, 60 min): 21 mOSM
°BRIX ([1]; STEP I, 60 min): 7.745 °BRIX
% DH (Degree of Hydrolysis) ([1]; STEP I, 90 min): 4.47%
mOSM ([1]; STEP I, 90 min): 370.5 mOSM
mOSM INCREASE ([1]; STEP I, 90 min): 23.5 mOSM
°BRIX ([1]; STEP I, 90 min): 8.175 °BRIX
% DH (Degree of Hydrolysis) ([1]; STEP I, 120 min): 4.95%
mOSM ([1]; STEP I, 120 min): 373 mOSM
mOSM INCREASE ([1]; STEP I, 120 min): 26 mOSM
°BRIX ([1]; STEP I, 120 min): 8.695 °BRIX
% DH (Degree of Hydrolysis) ([1]; STEP I, 180 min): 6.57%
mOSM ([1]; STEP I, 180 min): 381.5 mOSM
mOSM INCREASE ([1]; STEP I, 180 min): 34.5 mOSM
°BRIX ([1]; STEP I, 180 min): 9.195 °BRIX
mOSM [1, 2]: 468 mOSM
mOSM INCREASE [1, 2]: 0 mOSM
°BRIX [1, 2]: 12.965 °BRIX
mOSM ([1]; STEP II, 185 min): 996 mOSM
mOSM INCREASE ([1]; STEP II, 185 min): 528 mOSM
°BRIX ([1]; STEP II, 185 min): 15.135 °BRIX
mOSM ([1]; STEP II, 190 min): 1009 mOSM
mOSM INCREASE ([1]; STEP II, 190 min): 541 mOSM
°BRIX ([1]; STEP II, 190 min): 15.4025 °BRIX
mOSM ([1]; STEP II, 195 min): 1015.5 mOSM
mOSM INCREASE ([1]; STEP II, 195 min): 547.5 mOSM
°BRIX ([1]; STEP II, 195 min): 15.637 °BRIX
mOSM ([1]; STEP II, 210 min): 1037.5 mOSM
mOSM INCREASE ([1]; STEP II, 210 min): 569.5 mOSM
°BRIX ([1]; STEP II, 210 min): 16.135 °BRIX
mOSM ([1]; STEP II, 225 min): 1054.5 mOSM
mOSM INCREASE ([1]; STEP II, 225 min): 586.5 mOSM
°BRIX ([1]; STEP II, 225 min): 16.415 °BRIX
mOSM ([1]; STEP II, 240 min): 1068.5 mOSM
mOSM INCREASE ([1]; STEP II, 240 min): 600.5 mOSM
°BRIX ([1]; STEP II, 240 min): 16.705 °BRIX
mOSM ([1]; STEP II, 270 min): 1087.5 mOSM
mOSM INCREASE ([1]; STEP II, 270 min): 619.5 mOSM
°BRIX ([1]; STEP II, 270 min): 17.075 °BRIX
mOSM ([1]; STEP II, 300 min): 1111 mOSM
mOSM INCREASE ([1]; STEP II, 300 min): 643 mOSM
°BRIX ([1]; STEP II, 300 min): 17.437 °BRIX
mOSM ([1]; STEP II, 360 min): 1148 mOSM
mOSM INCREASE ([1]; STEP II, 360 min): 680 mOSM
°BRIX ([1]; STEP II, 360 min): 18.075 °BRIX

B1: Subtilisin carlsberg (protein, UniProt P00780 106-379, looked up)
Subtilisin Carlsberg: AQTVPYGIPLIKADKVQAQGFKGANVKVAVLDTGIQASHPDLNVVGGASFVAGEAYNTDGNGHGTHVAGTVAALDNTTGVLGVAPSVSLYAVKVLNSSGSGSYSGIVSGIEWATTNGMDVINMSLGGASGSTAMKQAVDNAYAKGVVVVAAAGNSGSSGNTNTIGYPAKYDSVIAVGAVDSNSNRASFSSVGAELEVMAPGAGVYSTYPTNTYATLNGTSMASPHVAGAAALILSKHPNLSASQVRNRLSSTATYLGSSFYYGKGLINVEAAAQ
notes: Subtilisin carlsberg, Clear-Lens Pro® (Novo Nordisk A/S), presently used serin protease for contact lens cleaning
performance in contact lens cleaning (lysozyme removed) (Hen Lysozyme): poor performance
